# Literature values in paper PMC7461116, “Synthesis, Anticonvulsant and Antinociceptive Activity of New Hybrid Compounds: Derivatives of 3-(3-Methylthiophen-2-yl)-pyrrolidine-2,5-dione” (International Journal of Molecular Sciences, 2020).
# Legend:
# Details in all cases: cited from earlier work
# [1] = test system: motor impairment on rotarod
# [2] = test system: PTZ-induced clonic seizures; set-up: method as in PMID 25933955
# [3] = test system: latency time to pain reaction; set-up: method as in PMID 25933955
# [4] = test system: maximal electroshock seizures
structure (smiles),measurement,setting,value
Cc1ccsc1C(=CCCN1CCC[C@@H](C(=O)O)C1)c1sccc1C [tiagabine],Rotarod: motor impairment in words,[1],significant motor impairment
same,scPTZ: activity in words,[2],active
same,Hot plate: dose at which analgesic activity was observed,[3],8 mg/kg
same,MES: protection in words,[4],did not show protection
